In PMC8211653, “Polθ inhibitors elicit BRCA-gene synthetic lethality and target PARP inhibitor resistance” (Nature Communications, 2021):

Assays:
DNA polymerase Polθ = biological target: T1, DNA polymerase Polθ (Homo sapiens, UniProt O75417); test: PicoGreen DNA primer extension assay with recombinant full-length enzyme; supported by DNA-dependent DSF stabilisation and mechanism-of-action kinetics; assay type: biochemical
T1 construct: gene POLQ; full-length (residues 2–2590)

Polα = biological target: T2, Polα (Homo sapiens, UniProt P09884); test: biochemical; design: inhibition of human DNA polymerases, selectivity assay
T2 construct: gene POLA1
T2 sequence (P09884 1-1462): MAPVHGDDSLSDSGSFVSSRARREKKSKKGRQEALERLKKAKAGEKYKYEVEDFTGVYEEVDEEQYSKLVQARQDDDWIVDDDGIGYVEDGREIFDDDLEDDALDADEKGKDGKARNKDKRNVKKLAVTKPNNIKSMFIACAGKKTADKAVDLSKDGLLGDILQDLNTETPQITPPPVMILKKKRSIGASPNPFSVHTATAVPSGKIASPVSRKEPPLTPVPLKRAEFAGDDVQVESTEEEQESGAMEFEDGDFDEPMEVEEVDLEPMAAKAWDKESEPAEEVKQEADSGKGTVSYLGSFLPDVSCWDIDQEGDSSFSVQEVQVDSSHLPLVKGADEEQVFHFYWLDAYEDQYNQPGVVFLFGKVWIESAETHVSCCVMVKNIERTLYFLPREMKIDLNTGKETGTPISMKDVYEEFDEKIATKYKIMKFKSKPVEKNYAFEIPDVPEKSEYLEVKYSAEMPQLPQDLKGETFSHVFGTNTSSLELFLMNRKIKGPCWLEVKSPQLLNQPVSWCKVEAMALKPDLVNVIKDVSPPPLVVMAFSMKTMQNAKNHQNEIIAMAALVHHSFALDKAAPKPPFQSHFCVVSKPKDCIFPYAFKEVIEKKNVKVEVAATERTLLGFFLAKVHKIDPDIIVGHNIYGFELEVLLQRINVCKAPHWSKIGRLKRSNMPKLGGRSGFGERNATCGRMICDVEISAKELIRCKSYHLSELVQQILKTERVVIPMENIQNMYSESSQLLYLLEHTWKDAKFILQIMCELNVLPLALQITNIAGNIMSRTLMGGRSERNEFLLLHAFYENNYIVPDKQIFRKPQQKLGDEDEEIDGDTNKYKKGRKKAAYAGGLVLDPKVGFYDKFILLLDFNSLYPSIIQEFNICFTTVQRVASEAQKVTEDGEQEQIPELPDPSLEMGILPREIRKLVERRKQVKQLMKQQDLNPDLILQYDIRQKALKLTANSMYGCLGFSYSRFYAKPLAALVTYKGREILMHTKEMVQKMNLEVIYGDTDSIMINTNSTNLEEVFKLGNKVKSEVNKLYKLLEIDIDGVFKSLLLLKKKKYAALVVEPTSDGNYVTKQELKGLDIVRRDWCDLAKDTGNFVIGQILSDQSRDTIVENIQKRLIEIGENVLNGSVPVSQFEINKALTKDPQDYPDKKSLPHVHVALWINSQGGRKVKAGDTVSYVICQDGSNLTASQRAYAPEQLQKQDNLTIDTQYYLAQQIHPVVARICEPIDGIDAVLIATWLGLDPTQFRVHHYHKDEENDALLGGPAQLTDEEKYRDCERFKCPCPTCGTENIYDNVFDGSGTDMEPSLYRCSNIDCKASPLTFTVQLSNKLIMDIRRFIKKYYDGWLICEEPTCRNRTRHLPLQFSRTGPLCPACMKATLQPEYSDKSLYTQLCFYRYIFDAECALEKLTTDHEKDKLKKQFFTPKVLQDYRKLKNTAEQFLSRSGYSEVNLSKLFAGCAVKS

Polη = biological target: T3, Polη (Homo sapiens, UniProt Q9Y253); test: biochemical; design: inhibition of human DNA polymerases, selectivity assay
T3 construct: gene POLH
T3 sequence (Q9Y253 1-713): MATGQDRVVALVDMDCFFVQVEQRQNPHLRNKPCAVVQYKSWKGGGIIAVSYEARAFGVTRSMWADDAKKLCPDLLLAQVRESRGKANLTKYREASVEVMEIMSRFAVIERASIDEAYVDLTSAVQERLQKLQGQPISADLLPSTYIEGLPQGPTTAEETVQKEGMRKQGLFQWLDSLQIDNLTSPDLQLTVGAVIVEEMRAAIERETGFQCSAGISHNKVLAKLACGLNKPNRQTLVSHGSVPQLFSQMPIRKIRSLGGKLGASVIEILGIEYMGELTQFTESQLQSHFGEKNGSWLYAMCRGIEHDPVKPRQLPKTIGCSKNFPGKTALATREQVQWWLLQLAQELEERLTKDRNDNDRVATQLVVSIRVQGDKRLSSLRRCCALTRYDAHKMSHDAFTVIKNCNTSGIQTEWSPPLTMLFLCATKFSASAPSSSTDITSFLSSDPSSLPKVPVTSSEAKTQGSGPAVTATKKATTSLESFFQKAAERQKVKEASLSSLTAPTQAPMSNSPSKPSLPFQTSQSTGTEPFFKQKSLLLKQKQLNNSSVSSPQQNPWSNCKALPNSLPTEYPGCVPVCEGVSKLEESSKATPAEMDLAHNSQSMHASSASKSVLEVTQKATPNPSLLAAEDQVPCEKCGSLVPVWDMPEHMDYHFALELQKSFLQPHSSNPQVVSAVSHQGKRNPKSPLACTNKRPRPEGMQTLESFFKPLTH

Polγ = biological target: T4, Polγ (Homo sapiens, UniProt P54098); test: biochemical; design: inhibition of human DNA polymerases, selectivity assay
T4 construct: gene POLG
T4 sequence (P54098 1-1239): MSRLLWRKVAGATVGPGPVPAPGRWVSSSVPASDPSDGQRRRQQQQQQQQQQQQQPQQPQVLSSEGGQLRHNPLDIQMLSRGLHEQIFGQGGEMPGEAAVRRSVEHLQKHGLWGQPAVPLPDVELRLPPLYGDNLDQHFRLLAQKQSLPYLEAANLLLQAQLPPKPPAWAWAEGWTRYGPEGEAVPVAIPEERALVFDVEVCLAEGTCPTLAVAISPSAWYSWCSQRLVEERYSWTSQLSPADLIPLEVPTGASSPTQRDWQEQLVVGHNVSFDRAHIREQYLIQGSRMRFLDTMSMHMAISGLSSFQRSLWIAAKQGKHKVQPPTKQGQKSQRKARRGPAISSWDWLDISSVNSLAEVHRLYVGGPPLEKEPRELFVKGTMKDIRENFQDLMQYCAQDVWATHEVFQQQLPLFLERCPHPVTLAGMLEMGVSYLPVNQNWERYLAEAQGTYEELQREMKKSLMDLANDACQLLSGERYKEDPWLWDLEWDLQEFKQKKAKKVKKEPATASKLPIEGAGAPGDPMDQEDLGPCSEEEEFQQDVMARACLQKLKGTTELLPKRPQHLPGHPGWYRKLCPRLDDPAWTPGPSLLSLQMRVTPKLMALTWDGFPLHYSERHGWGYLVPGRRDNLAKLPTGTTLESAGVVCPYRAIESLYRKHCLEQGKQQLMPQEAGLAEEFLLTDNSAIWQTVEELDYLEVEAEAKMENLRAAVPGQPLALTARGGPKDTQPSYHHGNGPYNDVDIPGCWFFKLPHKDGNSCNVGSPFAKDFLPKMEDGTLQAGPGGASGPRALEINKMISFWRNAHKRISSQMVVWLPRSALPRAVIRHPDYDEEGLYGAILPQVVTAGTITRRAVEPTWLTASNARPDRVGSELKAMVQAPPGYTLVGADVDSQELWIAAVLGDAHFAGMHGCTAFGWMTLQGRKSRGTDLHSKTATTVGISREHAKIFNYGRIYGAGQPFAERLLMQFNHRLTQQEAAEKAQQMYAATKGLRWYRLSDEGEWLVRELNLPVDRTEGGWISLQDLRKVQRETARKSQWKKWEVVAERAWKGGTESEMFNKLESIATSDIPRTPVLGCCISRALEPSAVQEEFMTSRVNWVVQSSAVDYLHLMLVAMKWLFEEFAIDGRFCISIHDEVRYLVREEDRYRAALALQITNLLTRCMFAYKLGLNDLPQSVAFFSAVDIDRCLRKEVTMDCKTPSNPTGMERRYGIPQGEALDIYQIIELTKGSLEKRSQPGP

Polν = biological target: T5, Polν (Homo sapiens, UniProt Q7Z5Q5); test: biochemical; design: inhibition of human DNA polymerases, selectivity assay
T5 construct: gene POLN
T5 sequence (Q7Z5Q5 1-900): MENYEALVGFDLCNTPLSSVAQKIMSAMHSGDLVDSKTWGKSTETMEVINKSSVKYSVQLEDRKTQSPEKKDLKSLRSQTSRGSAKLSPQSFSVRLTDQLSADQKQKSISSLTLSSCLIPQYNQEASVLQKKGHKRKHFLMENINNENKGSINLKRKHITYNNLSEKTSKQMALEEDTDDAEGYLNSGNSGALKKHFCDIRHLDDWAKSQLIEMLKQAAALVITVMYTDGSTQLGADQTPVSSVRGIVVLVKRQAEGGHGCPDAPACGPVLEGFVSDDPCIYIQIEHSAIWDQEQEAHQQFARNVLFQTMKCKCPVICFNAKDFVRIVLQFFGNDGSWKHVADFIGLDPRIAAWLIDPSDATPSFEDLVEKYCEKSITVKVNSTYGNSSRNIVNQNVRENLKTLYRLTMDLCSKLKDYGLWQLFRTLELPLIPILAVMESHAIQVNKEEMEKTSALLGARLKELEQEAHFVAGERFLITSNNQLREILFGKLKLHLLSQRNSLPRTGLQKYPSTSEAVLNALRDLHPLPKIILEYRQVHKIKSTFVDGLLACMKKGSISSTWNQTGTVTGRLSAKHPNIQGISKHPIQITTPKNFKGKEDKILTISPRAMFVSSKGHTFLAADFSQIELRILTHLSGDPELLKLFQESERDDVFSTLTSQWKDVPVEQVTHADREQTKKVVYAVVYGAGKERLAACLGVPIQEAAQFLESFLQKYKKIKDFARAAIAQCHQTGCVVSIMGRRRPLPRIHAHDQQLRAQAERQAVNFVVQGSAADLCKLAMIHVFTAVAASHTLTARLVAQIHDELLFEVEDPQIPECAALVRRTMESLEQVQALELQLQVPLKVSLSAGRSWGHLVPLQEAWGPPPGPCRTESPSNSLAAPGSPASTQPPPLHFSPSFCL

T1 sequence (O75417 2-2590): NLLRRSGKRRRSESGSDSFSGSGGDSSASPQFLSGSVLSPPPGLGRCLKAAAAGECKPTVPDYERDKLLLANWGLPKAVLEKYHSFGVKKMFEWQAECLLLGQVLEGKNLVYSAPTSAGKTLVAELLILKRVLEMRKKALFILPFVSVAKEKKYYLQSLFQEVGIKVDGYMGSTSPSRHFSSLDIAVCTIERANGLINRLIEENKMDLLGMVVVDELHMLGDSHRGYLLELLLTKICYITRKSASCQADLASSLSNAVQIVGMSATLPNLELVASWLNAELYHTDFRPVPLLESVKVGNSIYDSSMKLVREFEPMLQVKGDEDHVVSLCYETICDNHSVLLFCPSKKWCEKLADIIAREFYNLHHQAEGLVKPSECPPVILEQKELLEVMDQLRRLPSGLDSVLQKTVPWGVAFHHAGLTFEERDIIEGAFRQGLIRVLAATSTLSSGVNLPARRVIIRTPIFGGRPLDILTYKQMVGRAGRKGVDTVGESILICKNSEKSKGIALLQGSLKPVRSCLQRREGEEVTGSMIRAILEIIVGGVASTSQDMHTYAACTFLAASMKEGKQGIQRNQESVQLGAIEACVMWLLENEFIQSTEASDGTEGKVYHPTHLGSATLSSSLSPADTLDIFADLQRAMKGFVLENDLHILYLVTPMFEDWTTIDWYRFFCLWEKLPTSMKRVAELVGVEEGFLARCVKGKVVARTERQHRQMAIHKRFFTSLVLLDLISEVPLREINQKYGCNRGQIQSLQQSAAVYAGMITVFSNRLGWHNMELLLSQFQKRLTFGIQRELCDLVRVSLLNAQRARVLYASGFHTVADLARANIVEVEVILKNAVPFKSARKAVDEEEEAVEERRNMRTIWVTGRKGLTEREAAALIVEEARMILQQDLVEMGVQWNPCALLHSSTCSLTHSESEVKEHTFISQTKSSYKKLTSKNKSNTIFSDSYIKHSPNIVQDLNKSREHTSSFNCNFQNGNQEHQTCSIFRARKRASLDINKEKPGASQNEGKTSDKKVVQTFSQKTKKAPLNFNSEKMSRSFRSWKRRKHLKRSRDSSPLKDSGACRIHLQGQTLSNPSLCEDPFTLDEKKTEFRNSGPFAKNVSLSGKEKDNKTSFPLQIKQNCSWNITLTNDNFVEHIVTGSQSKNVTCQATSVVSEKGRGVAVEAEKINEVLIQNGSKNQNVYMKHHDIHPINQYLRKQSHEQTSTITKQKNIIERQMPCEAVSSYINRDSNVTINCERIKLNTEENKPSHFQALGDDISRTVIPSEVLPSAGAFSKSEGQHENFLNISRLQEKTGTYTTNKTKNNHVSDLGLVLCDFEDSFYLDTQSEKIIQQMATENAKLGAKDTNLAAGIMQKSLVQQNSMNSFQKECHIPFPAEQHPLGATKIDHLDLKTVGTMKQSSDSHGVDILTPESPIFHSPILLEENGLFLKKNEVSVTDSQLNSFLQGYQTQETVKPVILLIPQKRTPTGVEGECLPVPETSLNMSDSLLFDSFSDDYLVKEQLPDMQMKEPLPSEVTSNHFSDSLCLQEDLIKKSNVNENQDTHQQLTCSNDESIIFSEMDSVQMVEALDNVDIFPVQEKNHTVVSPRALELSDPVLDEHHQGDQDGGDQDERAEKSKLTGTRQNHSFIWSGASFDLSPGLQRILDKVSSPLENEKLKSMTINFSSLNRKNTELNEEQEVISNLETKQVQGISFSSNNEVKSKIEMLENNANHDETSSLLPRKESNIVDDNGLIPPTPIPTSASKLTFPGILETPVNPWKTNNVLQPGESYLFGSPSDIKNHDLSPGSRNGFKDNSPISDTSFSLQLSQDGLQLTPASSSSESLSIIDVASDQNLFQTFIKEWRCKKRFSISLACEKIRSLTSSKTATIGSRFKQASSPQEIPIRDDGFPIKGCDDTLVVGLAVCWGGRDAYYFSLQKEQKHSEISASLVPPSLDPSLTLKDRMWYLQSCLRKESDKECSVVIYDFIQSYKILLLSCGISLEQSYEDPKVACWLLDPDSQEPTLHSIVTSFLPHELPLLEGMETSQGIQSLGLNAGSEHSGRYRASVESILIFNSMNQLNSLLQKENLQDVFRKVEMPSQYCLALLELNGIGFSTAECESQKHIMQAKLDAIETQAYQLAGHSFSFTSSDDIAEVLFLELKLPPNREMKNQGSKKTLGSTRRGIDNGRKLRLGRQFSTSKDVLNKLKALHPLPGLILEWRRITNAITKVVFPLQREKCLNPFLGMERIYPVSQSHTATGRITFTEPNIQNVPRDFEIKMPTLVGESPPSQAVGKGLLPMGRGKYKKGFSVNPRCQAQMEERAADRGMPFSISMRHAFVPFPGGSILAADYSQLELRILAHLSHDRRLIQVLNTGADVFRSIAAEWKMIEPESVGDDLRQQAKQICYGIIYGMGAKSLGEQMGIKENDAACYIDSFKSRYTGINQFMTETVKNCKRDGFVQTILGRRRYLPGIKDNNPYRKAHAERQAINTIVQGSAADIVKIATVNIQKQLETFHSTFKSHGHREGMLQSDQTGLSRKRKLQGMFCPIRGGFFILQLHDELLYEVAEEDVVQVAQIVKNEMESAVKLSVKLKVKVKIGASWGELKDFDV

## Cc1cccc(N(C)C(=O)[C@@H]2[C@H](O)CCN2c2nc(C)cc(C(F)(F)F)c2C#N)c1 [ART558]
DNA polymerase Polθ
  IC50: 0.0079 µM
Polα
  IC50: > 100 µM
Polη
  IC50: > 100 µM
Polγ
  IC50: > 100 µM
Polν
  IC50: > 100 µM
